Test results reported in ChEMBL document CHEMBL5532646, “Discovery of 4-(N-dithiobenzyl piperazine)-1,8-naphthalimide as a potent multi-target antitumor agent with good efficacy, limited toxicity, and low resistance” (Eur J Med Chem, 2024).
Active and inactive are the calls of the source. The rule behind the calls is not given here.

Experiments:
[1] = Toxicity in nude mouse model xenografted with human T24 cells assessed as pathological change in liver at 15 mg/kg, ip administered once every two days for 21 days; type: organism-based, T-24; details: in vivo, 504 h, time 21 day
[2] = test system: T-24; test: Induction of cell cycle arrest at G1/S phase in human T24 cells incubated for 24 hrs by flow cytometry; type: functional, cell-based; details: dose 2-8 µM
[3] = test system: T-24; test: Antitumor activity against human T24 cells assessed as effect on MAPK signaling pathway at 5 uM incubated for 24 hrs by TMT/iTRAQ analysis; type: functional, cell-based
[4] = test system: T-24; test: Induction of cell cycle arrest in human T24 cells assessed as decrease in MCM5 level at 2 to 5 uM by Western blot analysis; type: functional, cell-based; details: dose 2-5 µM
[5] = test system: T-24; test: Induction of apoptosis in human T24 cells assessed as increase in Bak level at 2 to 8 uM incubated for 24 hrs by Western blot analysis; type: functional, cell-based; details: dose 2-8 µM
[6] = test system: T-24; test: Induction of ferroptosis in human T24 cells assessed as ruptured mitochondria at 5 uM incubated for 24 hrs by TEM analysis; type: functional, cell-based
[7] = test system: T-24; test: Induction of ferroptosis in human T24 cells assessed as increase in FACL4 level at 5 uM incubated for 24 hrs by Western blot analysis; type: functional, cell-based
[8] = test system: T-24; test: Inhibition of cell proliferation of human T24 cells at 1 to 5 uM incubated for 7 days by colony formation assay; type: functional, cell-based; details: dose 1-5 µM, time 7.0 day
[9] = test system: HepG2; test: Antiproliferative activity against human HepG2 cells incubated for 48 hrs by MTT assay; type: functional, cell-based; details: HepG2, 48 h
[10] = test system: T-24; test: Induction of cell cycle arrest at G2/M phase in human T24 cells at 2 uM incubated for 24 hrs by flow cytometry (reference value: 12.30 %); type: functional
[11] = test system: T-24; test: Antitumor activity against human T24 cells assessed as effect on ferroptosis signaling pathway at 5 uM incubated for 24 hrs by TMT/iTRAQ analysis; type: functional, cell-based
[12] = test system: HK-2; test: Antiproliferative activity against human HK-2 cells incubated for 48 hrs by MTT assay; type: functional, cell-based; details: HK-2, 48 h
[13] = Toxicity in nude mouse model xenografted with human HepG2 cells assessed as pathological change in heart at 15 mg/kg, ip administered once every two days for 21 days; type: organism-based; details: in vivo, 504 h, time 21 day
[14] = Toxicity in nude mouse model xenografted with human T24 cells assessed as pathological change in spleen at 15 mg/kg, ip administered once every two days for 21 days; type: organism-based, T-24; details: in vivo, 504 h, time 21 day
[15] = test system: T-24; test: Induction of ferroptosis in human T24 cells assessed as increase in iron level at 5 uM incubated for 24 hrs by FerrOrange probe based confocal microscopy; type: functional, cell-based
[16] = test system: T-24; test: Induction of cell cycle arrest at S phase in human T24 cells at 8 uM incubated for 24 hrs by flow cytometry (reference value: 12.39 %); type: functional
[17] = test system: T-24; test: Induction of ferroptosis in human T24 cells assessed as increase in iron level at 5 uM incubated for 24 hrs in presence of DFO by FerrOrange probe based confocal microscopy; type: functional, cell-based
[18] = test system: T-24; test: Anti-migratory activity against human T24 cells at 5 uM incubated upto 48 hrs in presence of FR180204 by wound healing assay; type: functional, cell-based
[19] = Toxicity in nude mouse model xenografted with human T24 cells assessed as pathological change in heart at 15 mg/kg, ip administered once every two days for 21 days; type: organism-based, T-24; details: in vivo, 504 h, time 21 day
[20] = test system: T-24; test: Induction of ferroptosis in human T24 cells assessed as increase in superoxide anion level at 5 uM incubated for 24 hrs by DHE probe based analysis; type: functional, cell-based
[21] = test system: T-24; test: Induction of autophagy in human T24 cells assessed as increase in LC-3 level at 2 to 8 uM incubated for 24 hrs by Western blot analysis; type: functional, cell-based; details: dose 2-8 µM
[22] = test system: T-24; test: Induction of apoptosis in human T24 cells at 5 uM incubated for 24 hrs by KEGG analysis; type: functional, cell-based
[23] = test system: T-24; test: Induction of apoptosis in human T24 cells assessed as increase in Bad level at 2 to 8 uM incubated for 24 hrs by Western blot analysis; type: functional, cell-based; details: dose 2-8 µM
[24] = test system: T-24; test: Induction of cell cycle arrest in human T24 cells assessed as increase in p21 level at 2 to 8 uM by Western blot analysis; type: functional, cell-based; details: dose 2-8 µM
[25] = test system: T-24; test: Induction of apoptosis in human T24 cells assessed as increase in Bax level at 2 to 8 uM incubated for 24 hrs by Western blot analysis; type: functional, cell-based; details: dose 2-8 µM
[26] = test system: T-24; test: Induction of autophagy in human T24 cells assessed as decrease in P62 level at 2 to 8 uM incubated for 24 hrs by Western blot analysis; type: functional, cell-based; details: dose 2-8 µM
[27] = test system: A549; test: Antiproliferative activity against human A549 cells incubated for 48 hrs by MTT assay; type: functional, cell-based
[28] = test system: T-24; test: Induction of ferroptosis in human T24 cells at 5 uM incubated for 24 hrs by KEGG analysis; type: functional, cell-based
[29] = test system: T-24; test: Induction of ferroptosis in human T24 cells assessed as increase in ROS level at 5 uM incubated for 24 hrs by DCFH-DA probe based analysis; type: functional, cell-based
[30] = test system: MGC-803; test: Antiproliferative activity against human MGC-803 cells incubated for 48 hrs by MTT assay; type: functional, cell-based; details: MGC-803, 48 h
[31] = test system: T-24; test: Upregulation of ERK1/2 phosphorylation in human T24 cells incubated for 24 hrs by Western blot analysis; type: functional, cell-based; details: dose 2-8 µM
[32] = Toxicity in nude mouse model xenografted with human HepG2 cells assessed as pathological change in spleen at 15 mg/kg, ip administered once every two days for 21 days; type: organism-based; details: in vivo, 504 h, time 21 day
[33] = test system: T-24; test: Induction of cell cycle arrest at G2/M phase in human T24 cells at 5 uM incubated for 24 hrs by flow cytometry (reference value: 12.30 %); type: functional
[34] = test system: T-24; test: Induction of ferroptosis in human T24 cells assessed as decrease in GPX4 level at 5 uM incubated for 24 hrs by Western blot analysis; type: functional, cell-based
[35] = test system: T-24; test: Induction of cell cycle arrest at S phase in human T24 cells at 2 uM incubated for 24 hrs by flow cytometry (reference value: 12.39 %); type: functional
[36] = Toxicity in nude mouse model xenografted with human HepG2 cells assessed as pathological change in liver at 15 mg/kg, ip administered once every two days for 21 days; type: organism-based; details: in vivo, 504 h, time 21 day
[37] = test system: T-24; test: Effect on cell cycle pathway in human T24 cells at 5 uM incubated for 24 hrs by KEGG analysis; type: functional, cell-based
[38] = test system: T-24; test: Induction of autophagy in human T24 cells at 5 uM incubated for 24 hrs by KEGG analysis; type: functional, cell-based
[39] = test system: T-24; test: Induction of apoptosis in human T24 cells assessed as increase in cleaved PARP level at 2 to 8 uM incubated for 24 hrs by Western blot analysis; type: functional, cell-based; details: dose 2-8 µM
[40] = test system: A549/CDDP; test: Antiproliferative activity against human A549/DDP cells incubated for 48 hrs by MTT assay; type: functional, cell-based
[41] = test system: T-24; test: Downregulation of mTOR level in human T24 cells at 2 to 8 uM incubated for 24 hrs by Western blot analysis; type: functional, cell-based; details: dose 2-8 µM
[42] = test system: T-24; test: Induction of ferroptosis in human T24 cells assessed as reduction in mitochondrial cristae at 5 uM incubated for 24 hrs by TEM analysis; type: functional, cell-based
[43] = test system: T-24; test: Anti-migratory activity against human T24 cells at 5 uM by wound healing assay; type: functional, cell-based; details: time <= 48.0 hrs, TDE = time-dependent effect
[44] = test system: SK-OV-3; test: Antiproliferative activity against human SK-OV-3 cells incubated for 48 hrs by MTT assay; type: functional, cell-based; details: SK-OV-3, 48 h

Question: Which results are given for `CN(C)CCN1C(=O)c2cccc3c(N4CCN(C(=S)SCc5ccccc5)CC4)ccc(c23)C1=O`?
Answer: Activity [1]: Non-Toxic; Activity [2]: Dose-Dependent Effect; Activity [3]: Active; Activity [4]: Active; Activity [5]: Active; Activity [6]: Active; Activity [7]: Active; inhibition [8]: Active; IC50 [9]: 3.6 µM; Activity [10]: 20.7%; Activity [11]: Active; IC50 [12]: 14.9 µM; Activity [13]: Non-Toxic; Activity [14]: Non-Toxic; Activity [15]: Active; Activity [16]: 13.21%; Activity [17]: inactive; Activity [18]: inactive; Activity [19]: Non-Toxic; Activity [20]: Active; Activity [21]: Active; Activity [22]: Active; Activity [23]: Active; Activity [24]: Active; Activity [25]: Active; Activity [26]: Active; Activity [27]: Active; Activity [28]: Active; Activity [29]: Active; IC50 [30]: 5.23 µM; Activity [31]: Dose-Dependent Effect; Activity [32]: Non-Toxic; Activity [33]: 18.36%; Activity [34]: Active; Activity [35]: 36.93%; Activity [36]: Non-Toxic; Activity [37]: Active; Activity [38]: Active; Activity [39]: Active; Activity [40]: Active; Activity [41]: Active; Activity [42]: Active; Activity [43]: Tde; IC50 [44]: 1.43 µM
